# Experimental data reported in ChEMBL document CHEMBL3399985, “Rational design, synthesis and structure-activity relationships of 4-alkoxy- and 4-acyloxy-phenylethylenethiosemicarbazone analogues as novel tyrosinase inhibitors” (Bioorg Med Chem, 2015).
# Active and inactive are the calls of the source. No cut-off for these calls is given here.
# Key:
# Tyrosinase = target: T1, Tyrosinase (Agaricus bisporus, UniProt O42713)
# T1 sequence (O42713 whole entry): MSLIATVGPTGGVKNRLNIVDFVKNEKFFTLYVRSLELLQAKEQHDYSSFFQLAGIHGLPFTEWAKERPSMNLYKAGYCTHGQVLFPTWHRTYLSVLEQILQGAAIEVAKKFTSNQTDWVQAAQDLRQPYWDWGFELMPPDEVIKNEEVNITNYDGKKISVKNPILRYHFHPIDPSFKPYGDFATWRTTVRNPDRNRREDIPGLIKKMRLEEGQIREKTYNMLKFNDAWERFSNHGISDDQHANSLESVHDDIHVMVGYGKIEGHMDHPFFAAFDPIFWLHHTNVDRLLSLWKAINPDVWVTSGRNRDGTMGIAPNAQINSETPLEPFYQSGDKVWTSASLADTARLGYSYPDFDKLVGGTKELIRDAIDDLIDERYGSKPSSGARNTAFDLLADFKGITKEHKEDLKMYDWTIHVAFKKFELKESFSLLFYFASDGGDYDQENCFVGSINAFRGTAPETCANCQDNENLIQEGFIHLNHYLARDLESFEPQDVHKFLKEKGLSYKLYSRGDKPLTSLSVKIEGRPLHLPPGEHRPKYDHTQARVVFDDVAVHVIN
# Description: Inhibition of mushroom tyrosinase using L-DOPA as substrate preincubated for 10 mins by spectrophotometry
# [1] = target: T2, Tyrosinase (Agaricus bisporus) (UniProt O42713); assay: Reversible inhibition of mushroom tyrosinase using L-DOPA as substrate preincubated at 0.2 to 0.6 uM for 10 mins by spectrophotometry
# T2 sequence (whole entry): T1 sequence (O42713 whole entry)
# [2] = target: T2, Tyrosinase (Agaricus bisporus); assay: Competitive inhibition of mushroom tyrosinase using L-DOPA as substrate preincubated at 0.2 to 0.6 uM for 10 mins by Lineweaver-Burk double reciprocal plot method
# [3] = target: T2, Tyrosinase (Agaricus bisporus); assay: Reversible inhibition of mushroom tyrosinase using L-DOPA as substrate preincubated at 0.1 to 0.3 uM for 10 mins by spectrophotometry
# [4] = target: T2, Tyrosinase (Agaricus bisporus); assay: Competitive inhibition of mushroom tyrosinase using L-DOPA as substrate preincubated at 0.1 to 0.3 uM for 10 mins by Lineweaver-Burk double reciprocal plot method
Compound,IC50 (Tyrosinase),further results
C/C(Cc1ccc(OCc2ccccc2)cc1)=N\NC(N)=S,340 nM,inhibition [1]: Active; inhibition [2]: Active
COc1ccc(/C(C)=N/NC(=S)NN)cc1,110000 nM,
CCCOc1ccc(CC/C(C)=N/NC(N)=S)cc1,264 nM,
NNC(=S)NN,178000 nM,
CCCCCCCCOc1ccc(CC/C(C)=N/NC(N)=S)cc1,865 nM,
CCCCCOc1ccc(C/C(C)=N/NC(N)=S)cc1,613 nM,
C/C(CCc1ccc(OCc2ccc(Br)cc2)cc1)=N\NC(N)=S,438 nM,
CCCCOc1ccc(C/C(C)=N/NC(=S)NN)cc1,224000 nM,
C/C(CCc1ccc(OCCCc2ccccc2)cc1)=N\NC(N)=S,835 nM,
C/C(CCc1ccc(OCC(=O)O)cc1)=N\NC(N)=S,593 nM,
C/C(CCc1ccc(OCc2ccccc2)cc1)=N\NC(N)=S,217 nM,inhibition [3]: Active; inhibition [4]: Active
COc1ccc(CC/C(C)=N/NC(N)=S)cc1,188 nM,
CCC(CC)Oc1ccc(CC/C(C)=N/NC(N)=S)cc1,445 nM,
C/C(CCc1ccc(OC(=O)c2ccccc2)cc1)=N\NC(N)=S,156 nM,
CCOC(=O)CCCOc1ccc(C/C(C)=N/NC(N)=S)cc1,478 nM,
C/C(CCc1ccc(O)cc1)=N\NC(=S)NN,126000 nM,
CCCCOc1ccc(CC/C(C)=N/NC(N)=S)cc1,272 nM,
CCOC(=O)CCCOc1ccc(CC/C(C)=N/NC(N)=S)cc1,328 nM,
COc1ccc(C/C(C)=N/NC(=S)NN)cc1,159000 nM,
C/C(CCc1ccc(OCCCC(=O)O)cc1)=N\NC(N)=S,678 nM,
CC(=O)Oc1ccc(CC/C(C)=N/NC(N)=S)cc1,72 nM,
C/C(Cc1ccc(O)cc1)=N\NC(N)=S,2710 nM,
CCOc1ccc(CC/C(C)=N/NC(N)=S)cc1,209 nM,
CCCCCCOc1ccc(CC/C(C)=N/NC(N)=S)cc1,754 nM,
CCOC(=O)COc1ccc(CC/C(C)=N/NC(N)=S)cc1,515 nM,
CCCCOc1ccc(CC/C(C)=N/NC(=S)NN)cc1,232000 nM,
COc1ccc(CC/C(C)=N/NC(=S)NN)cc1,208000 nM,
C/C(CCc1ccc(OCCC(C)C)cc1)=N\NC(N)=S,475 nM,
C/C(CCc1ccc(OC(=O)C(C)C)cc1)=N\NC(N)=S,288 nM,
CCCCCOc1ccc(CC/C(C)=N/NC(N)=S)cc1,412 nM,
